Laboratory results: the supplement of paper PMC10307832

How the values were obtained:
Assay in all cases: relative viability (nuclei count vs DMSO), 5 days (fraction); higher = more cells survive
NCI-H3122 = tested on: NCI-H3122
Procedure, shortened: (§1)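 After 5 days of treatment, lung cancer cells in 1536-well plates were fixed and stained in a single step (final 0.05% Triton X-100, 1% formaldehyde, 1 ug/ml Hoechst) and their nuclei counted on 4× images. Treatment had been applied by pin tool the day after seeding as one drug alone or as a fixed anchor-drug dose with five library-drug doses (not always all listed) in √10 steps. Relative viability is the nuclei count of treated wells divided by that of vehicle wells, and values are medians of duplicate plates.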

LU99A = tested on: LU99A
Procedure, shortened: as §1

LOU-NH91 = tested on: LOU-NH91
Procedure, shortened: as §1

NCI-H1651 = tested on: NCI-H1651
Procedure, shortened: as §1

NCI-H1755 = tested on: NCI-H1755
Procedure, shortened: as §1

NCI-H460 = tested on: NCI-H460
Procedure, shortened: as §1

NCI-H2087 = tested on: NCI-H2087
Procedure, shortened: as §1

NCI-H2228 = tested on: NCI-H2228
Procedure, shortened: as §1

HCC-78 = tested on: HCC-78
Procedure, shortened: as §1

CAL-12T = tested on: CAL-12T
Procedure, shortened: as §1

LC-2-ad = tested on: LC-2-ad
Procedure, shortened: as §1

CCN(CC)CCCCNc1ncc2cc(-c3cc(OC)cc(OC)c3)c(NC(=O)NC(C)(C)C)nc2n1 + Cc1nc(Nc2ncc(C(=O)Nc3c(C)cccc3Cl)s2)cc(N2CCN(CCO)CC2)n1 [Dasatinib] (partner 0.075 µM)
relative viability (NCI-H3122; first compound 0.01 µM): 0.876
relative viability (NCI-H3122; first compound 0.03162 µM): 0.914
relative viability (NCI-H3122; first compound 0.1 µM): 0.939
relative viability (NCI-H3122; first compound 0.3162 µM): 0.954
relative viability (NCI-H3122; first compound 1 µM): 0.842
relative viability (LU99A; first compound 0.01 µM): 0.508
relative viability (LU99A; first compound 0.03162 µM): 0.611
relative viability (LU99A; first compound 0.1 µM): 0.712
relative viability (LU99A; first compound 0.3162 µM): 0.499
relative viability (LU99A; first compound 1 µM): 0.445
relative viability (LOU-NH91; first compound 0.01 µM): 0.51
relative viability (LOU-NH91; first compound 0.03162 µM): 0.521
relative viability (LOU-NH91; first compound 0.1 µM): 0.629
relative viability (LOU-NH91; first compound 0.3162 µM): 0.718
relative viability (LOU-NH91; first compound 1 µM): 0.57
relative viability (NCI-H1651; first compound 0.01 µM): 0.465
relative viability (NCI-H1651; first compound 0.03162 µM): 0.448
relative viability (NCI-H1651; first compound 0.1 µM): 0.486
relative viability (NCI-H1651; first compound 0.3162 µM): 0.47
relative viability (NCI-H1651; first compound 1 µM): 0.288
relative viability (NCI-H1755; first compound 0.01 µM): 0.394
relative viability (NCI-H1755; first compound 0.03162 µM): 0.464
relative viability (NCI-H1755; first compound 0.1 µM): 0.518
relative viability (NCI-H1755; first compound 0.3162 µM): 0.621
relative viability (NCI-H1755; first compound 1 µM): 0.207
relative viability (NCI-H460; first compound 0.01 µM): 0.538
relative viability (NCI-H460; first compound 0.03162 µM): 0.464
relative viability (NCI-H460; first compound 0.1 µM): 0.81
relative viability (NCI-H460; first compound 0.3162 µM): 0.709
relative viability (NCI-H460; first compound 1 µM): 0.395
relative viability (NCI-H2087; first compound 0.01 µM): 0.993
relative viability (NCI-H2087; first compound 0.03162 µM): 0.797
relative viability (NCI-H2087; first compound 0.1 µM): 0.964
relative viability (NCI-H2087; first compound 0.3162 µM): 0.961
relative viability (NCI-H2087; first compound 1 µM): 0.888
relative viability (NCI-H2228; first compound 0.01 µM): 0.586
relative viability (NCI-H2228; first compound 0.03162 µM): 0.589
relative viability (NCI-H2228; first compound 0.1 µM): 0.793
relative viability (NCI-H2228; first compound 0.3162 µM): 0.536
relative viability (NCI-H2228; first compound 1 µM): 0.431
relative viability (HCC-78; first compound 0.01 µM): 0.46
relative viability (HCC-78; first compound 0.03162 µM): 0.361
relative viability (HCC-78; first compound 0.1 µM): 0.493
relative viability (HCC-78; first compound 0.3162 µM): 0.421
relative viability (HCC-78; first compound 1 µM): 0.364
relative viability (CAL-12T; first compound 0.01 µM): 0.389
relative viability (CAL-12T; first compound 0.03162 µM): 0.525
relative viability (CAL-12T; first compound 0.1 µM): 0.435
relative viability (CAL-12T; first compound 0.3162 µM): 0.371
relative viability (CAL-12T; first compound 1 µM): 0.417
relative viability (LC-2-ad; first compound 0.01 µM): 0.575
relative viability (LC-2-ad; first compound 0.03162 µM): 0.679
relative viability (LC-2-ad; first compound 0.1 µM): 0.73
relative viability (LC-2-ad; first compound 0.3162 µM): 0.664
relative viability (LC-2-ad; first compound 1 µM): 0.344
